Data on 1 substance can be found in patent publication US20230114627A1, “COMPOSITION COMPRISING A METAL ASCORBO-CAMPHORATE COMPOUND AND METHOD FOR PREVENTION AND/OR TREATMENT OF PAPILLOMAVIRUS INFECTIONS” (MGB PHARMA Inc., priority 2020, published 2023).

The test system of data set [1] is Vero cells. Briefly: MTT cytotoxicity assay on Vero cells. The format is cell-based. As to the method: (§1) The cytotoxicity study was conducted on three types of cells: on Vero cells, on human diploid MRC5 cells (human fibroblast and embryonic type), and on Cos-7 cells. […] The latter forms crystals with the highly metabolic living cells.
(§2) The absorbance at 490 nm of the dissolved crystals corresponds to the number of living cells.
In a first series of tests, the Cytotoxicity of said ascorbo-camphorate on Vero cells was verified with these solutions at dilution rates ranging from one tenth to one billionth.
(Formazan colour is commonly taken as a measure of viable cells.)

Data set [2] has as its system human diploid MRC5 cells. Briefly: MTT cytotoxicity assay on MRC5 cells. The format is cell-based. As to the method:
as §1, §2
In a second series of tests, the cytotoxicity of said ascorbo-camphorate on MRC5 cells was tested with the solutions at dilution ratios ranging from 0 to 100 millionths.

The test system of data set [3] is Cos-7 cells. Briefly: Colorimetric cell viability assay on Cos-7 cells. Format: cell-based. The conditions noted are these: 24 hours, estimated; read-out: 50% cytotoxic concentration (CC50). As to the method:
as §1
In a third series of tests, the cytotoxicity of said ascorbo-camphorate on Cos-7 cells was verified. High concentrations of said ascorbo-camphorate may be required to produce an effective formulation. Therefore, the intrinsic toxicity of concentrations of said ascorbo-camphorate up to 5,000 μg/mL was evaluated using a colorimetric cell viability assay. Cos-7 cells were exposed to serial dilutions of the stock solution of said ascorbo-camphorate for 24 hours.
The viability index, or the fraction of viable cells after microbicide treatment relative to the fraction of viable cells exposed to the control condition, was calculated. Cells treated with 0.1% PBS-azide solution were used as a positive control for toxicity. The viability index, or the fraction of viable cells after treatment with the compound “AC” relative to the fraction of viable cells exposed to the natural state, was calculated. […] The 50% cytotoxic concentration (CC50) of said ascorbic camphorate was calculated using a dose-response-inhibition analysis on GraptiPad Prism v5.04 software (from GraphPad Software).

Data set [4] concerns VLP-16 pseudovirions of the HPV-16 virus. Conditions: for inhibitory concentration 50 (IC50) / IC50: estimated; for IC50: read-out: inhibitory concentration 50 (IC50). As to the method:
This experiment provides the data and analysis of an in vitro “AC” experimental treatment against the HPV-16 papillomavirus which was carried out by neutralizing the entry of viral pseudo particles (VLP-16) of the HPV-16 virus which was inoculated into Cos-7 cells, pretreated or treated contemporaneously to the inoculation of the VLP-16 with solutions of increasing concentrations of the said ascorbo-camphorate compound (AC).
In the case of the present tests in this example, pseudovirions were produced at the Université François Rabelais de Tours (France), under the direction of Professor A. Touzet. In brief, the VLP-16 virus pseudo particles or pseudovirions or VLPs were produced by transfection of purified plasmids containing the L1 and L2 structural proteins of the HPV-16 capsomers, and carrying a gene encoding the luciferase marker gene, into cell culture of the 293-cell line. VLP-16s were collected by nuclear lysis, with purification by […] gradient ultracentrifugation.
The positive control for the neutralization assay as disclosed herein used purified VLP-16 inoculum pre-incubated with purified antibodies against HPV (incubation for 1 hour of said VLP nuclear lysate in a solution of anti-HPV antibodies in DMED culture medium). These anti-HPV antibodies served as a positive control in the plaque assay for neutralization of Cos-7 cell infection by VLP-16.
Cells of the Cos-7 cell line were cultured in 96-well microplates, 5% CO2 and 98% H2O, at 37° C. Inoculation of Cos-7 cells was performed as follows: the inoculum mixture was added to the wells containing the confluent Cos-7 sheets, incubated for 72 hours at 37° C., 5% CO2 and 98% H2O, and the supernatant is washed and discarded from the mixture.
Cos-7 cells that may have internalized the luciferase-expressing VLPs were then recovered. The Cos-7 cells were then lysed; then the substrate (luciferin) of the reporter gene (luciferase) was added with dark incubation, for reading using a luminometer.
For each series, the experiments were repeated three times.
To assess pseudovirions infectivity, linear reporter gene expression and to perform titration of pseudovirions solutions, Cos-7 cells were grown (10^4 cells/well) in supplemented DMEM in 96-well plates (Thermo Fisher Scientific) in 5% CO2 at +37° C. until cell confluence was 40-50%. Cells were transduced by replacing the culture medium with fresh unsupplemented DMEM containing serial dilutions of the previously produced PsVs stock solutions and incubated at +37° C. One well containing 1 μg of the pGL4.10[luc2] vector, encoding the luciferase reporter gene, was made as a positive control and another was the cell control for background luminescence (without PsVs or reporter plasmid). After a 3 hours incubation period, 100 μL of growth medium was added to each well and the transduced Cos-7 cells were incubated for 48 h at +37° C. in 5% CO2. Then, the growth medium was removed and the transduced Cos-7 cells were washed with DPBS and incubated in the dark for 15 min in 100 μL of Pierce™ Firefly Luciferase One-Step Glow Assay (Thermo Fisher Scientific). The resulting cell lysates were harvested and transferred to white, 96-well microplates and luciferase enzyme activity was measured using the Luminoskan Ascent brand luminometer (from Thermo Fisher Scientific) after adding 50 μL of luciferin substrate to each well.
Serial dilutions of the stock solution of compound “AC” covering an appropriate concentration range were subjected to an HPV inhibition assay based on VLP-16 pseudovirions.

Data set [5] deals with HEC-1A (line of endocervical origin). Put plainly: XTT cell viability (KIT Tox-2) on HEC-1A. The format is cell-based. The conditions noted are these: 24 hours, 1 μM to 500 μM tested. As to the method:
(§3) In this example, the cell viability as a measure of non-toxicity was assessed using KIT Tox-2 XTT Sigma Aldrich, where cell viability was measured in terms of the ability of cells to degrade a colorless compound into a colored compound (mitochondrial enzymes) using color intensity as being proportional to the cell viability. Three cell lines as models were used including HEC-1A (line of endocervical origin), SiHa (vaginal cells), and CaCo-2 (intestinal cells). […] KIT Tox-2 XTT Sigma Aldrich.

Data set [6] deals with SiHa (vaginal cells). Briefly: XTT cell viability (KIT Tox-2) on SiHa. The format is cell-based. Conditions: 24 hours, 1 μM to 500 μM tested. As to the method:
as §3

Data set [7] concerns CaCo-2 (intestinal cells). Briefly: XTT cell viability (KIT Tox-2) on CaCo-2. Format: cell-based. The conditions noted are these: CaCo-2, 24 hours, 1 μM to 500 μM tested. As to the method:
as §3

Data set [8] concerns HEC-1A. Briefly: Transepithelial electrical resistance (TEER) of HEC-1A monostratified epithelium. Conditions: up to 500 μM, 24 hours. The format is cell-based.
The test system of data set [9] is CaCo-2. Put plainly: Transepithelial electrical resistance (TEER) of CaCo-2 monostratified epithelium. The conditions noted are these: CaCo-2, up to 500 μM, 24 hours. Format: cell-based.
[10] abbreviates: pseudovirions added simultaneously.

Like-named read-outs stand apart in the source and are kept apart here.

Take zinc tetra-ascorbo-camphorate [C14]: the “percentage of living cells remaining” value in data set [1] (50-fold dilution of 0.05155 M stock) and in [2] (one-tenth dilution of 0.05155 M stock) was “greater than or equal to 50%” in each case. In data set [1] (lower limit tested 5.15.10^−5 μM), the “molarity of solutions tolerable by Vero cells (upper limit, value excluded)” value was less than 1031 µM. The “molarity of solutions tolerable by MRC5 cells (upper limit, exclusive value)” value in data set [2] (lower limit tested 5.15.10-4 μM) is less than 5155 µM. In addition, the CC50 in data set [3] was more than 5150 µM. Moreover, the “inhibition of VLP-16 internalization” value is listed as “Total inhibition” in data set [4] (contemporaneous addition, 1/10 dilution (515.5 μM)) and “total inhibition” in [4] (pretreatment, dilution 1/10^2 (515.5 μM)). Further, the “inhibition of VLP-16 penetration into Cos-7 cells” value in data set [4] (contemporaneous addition, dilution 1:10^3 (51.5 μM)) was found to be 33%. Besides, the “inhibitory concentration 50 (IC50)” value in data set [4] (pre-treatment of Cos-7 cells) is 2.8 µg/mL; in [4] (setting [10]), 8.1 µg/mL. Also, in data set [4] (pretreatment, compared to untreated infected controls), the “inhibition of penetration of VLP-16 into Cos-7 cells” value was 30-40%. In addition, the IC50 in data set [4] (pre-treatment of Cos-7 cells) was 2.9 µM; in [4] (setting [10]), 8.3 µM. The “concentrations without toxicity to epithelial cells” value in [5], in [6] and in data set [7] was “less than or equal to 125 μM” in each case. In addition, the “effect on TEER” value in [8] and in data set [9] was “does not affect the TEER” throughout.
